From patent US5432165A, “Methods for the treatment of infection caused by Hepatitis B virus (HBV)” (priority 1992, dated 1995)
“And” between values parts separate entries of the source, which are not always exact repeats. Equal values may be shown once. “Also recorded” adds a separate entry of the source.

Experiments:
HSV-1 = conditions: read-out: in vitro ED90; cited from earlier work
hepatitis B virus = test: Oral FIAU in immune-competent patients with chronic hepatitis B: HBV DNA and HBV DNA polymerase; assay type: in vivo, human; conditions: for Number HBeAg-negative at latest follow-up: 6 patients with 1 month follow-up
Procedure: To assess the antiviral activity of FIAU against hepatitis B virus, up to 24 patients with chronic hepatitis B will be treated with oral FIAU in doses of 0.05, 0.10, 0.25 or 0.50 mg/kg-day in three divided doses daily for four weeks. Six patients, of which only three can be previous interferon failures, will be initially dosed at 0.10 mg/kg-day. Depending on tolerance and efficacy, the next six patients will be entered at 0.05 or 0.25 mg/kg-day.
This study is an open and uncontrolled evaluation of oral FIAU in the treatment of chronic hepatitis B. Up to four dose cohorts of six patients each will be sequentially studied starting at 0.10 mg/kg-day. Patients will take the medication three times per day for four weeks. Depending on efficacy and tolerance, the next dose cohort will be either 0.05 or 0.25 mg/kg-day.
Patients who meet the eligibility criteria will start on therapy, generally as outpatients one to two weeks after the in-hospital evaluation. Up to four doses will be sequentially evaluated. The initial six patients will receive 0.10 mg/kg-day for four weeks.
If tolerance is adequate at 0.10 mg/kg-day, six patients will receive 0.25 mg/kg-day for four weeks. The final six patients will receive 0.50 mg/kg-day for four weeks if needed for better efficacy and if tolerance has been adequate at the lower doses.
The FIAU will be administered by mouth in three equally divided doses daily. FIAU is provided as a 1 mg/ml syrup. Patients will be instructed on how to measure and self-administer the FIAU solution using oral dosing syringes. Dosing compliance will be monitored by measuring the residual FIAU solution returned at the weekly outpatient visit.
Activity of FIAU against hepatitis B virus will be assessed by monitoring levels of HBV DNA. An inhibition of HBV DNA activity of at least about 50% by the fourth week of treatment will be considered significant antiviral activity. The dose levels of FIAU will be compared based upon the degree of inhibition of serum levels of HBV DNA.

[1] = Peak and trough plasma levels of FIAU and FAU by HPLC; assay type: in vivo, human; conditions: for concentration at 24 h: FIAU trough plasma concentration
Description: Additionally at Baseline, archive plasma samples were taken.

[2] = Adverse Experience Summary (Table II), HIV-infected patients; assay type: in vivo, human; conditions: 0.1 mg/kg-day
Description: A summary of the adverse effects experienced by some of the patients involved in the various dosage studies conducted are presented in Table II, attached hereto. Where no entry is given, no adverse experience was observed.

[3] = 0.1 mpk, Day 1 (initial level), individual patients 1A-6A
[4] = 0.1 mpk, Day 3, individual patients 1A-6A
[5] = 0.1 mpk, Day 8, individual patients 1A-6A
[6] = 0.1 mpk, Week 2, individual patients 1A-6A
[7] = 0.1 mpk, Week 3, individual patients 1A-6A
[8] = 0.1 mpk, Week 4, individual patients 1A-6A
[9] = 0.1 mpk, Week 5 (after 4-week treatment), individual patients 1A-6A
[10] = 0.25 mpk, Day 1 (initial level), individual patients 1B-6B
[11] = 0.25 mpk, Day 3, individual patients 1B-6B
[12] = 0.25 mpk, Day 8, individual patients 1B-6B
[13] = 0.25 mpk, Week 2, individual patients 1B-6B
[14] = human, in vivo, po, 1 mg/kg/day, 24 h

## O=c1[nH]c(=O)n([C@@H]2O[C@H](CO)[C@@H](O)[C@@H]2F)cc1I [FIAU, 1-(2'-deoxy-2'-fluoro-β-D-arabinofuranosyl)-5-iodouracil]
HSV-1
  EC90: ~50 nM
Hepatitis B virus; 0.05 mpk
  mean reduction of HBV DNA serum level from initial levels at Week 4: 30%
  Number HBeAg-negative at latest follow-up: 0
Hepatitis B virus; 0.05 mpk, Day 1 (initial level), individual patients 1C, 2C
  HBV DNA Polymerase (cpm): 1,318 cpm and 3,365 cpm
Hepatitis B virus; 0.05 mpk, Day 3, individual patients 1C, 2C
  HBV DNA Polymerase (cpm): 748 cpm and 1,509 cpm
Hepatitis B virus; 0.05 mpk, Day 8, individual patients 1C, 2C
  HBV DNA Polymerase (cpm): 348 cpm and 908 cpm
Hepatitis B virus; 0.05 mpk, n = 4
  Mean % change of HBV DNA at Week 4 of FIAU: -31%
Hepatitis B virus; 0.1 mpk
  mean reduction of HBV DNA serum level from initial levels at Week 4: 88%
  Number HBeAg-negative at latest follow-up: 0
Hepatitis B virus; [3]
  HBV DNA: 68.1 pg/mL and 306.2 pg/mL and 307.7 pg/mL and 18.1 pg/mL and 71.3 pg/mL and 172.6 pg/mL
  HBV DNA Polymerase (cpm): 1208 cpm and 3340 cpm and 3,000 cpm and 1,500 cpm and 1,174 cpm
Hepatitis B virus; [4]
  HBV DNA: 23.2 pg/mL and 110.6 pg/mL and 208.7 pg/mL and 12.3 pg/mL and 27.8 pg/mL and 75.6 pg/mL
  HBV DNA Polymerase (cpm): 348 cpm and 721 cpm and 1,550 cpm and 440 cpm and 251 cpm and 610 cpm
Hepatitis B virus; [5]
  HBV DNA: 16.8 pg/mL and 100.1 pg/mL and 178.8 pg/mL and 8.8 pg/mL and 9.7 pg/mL and 27.6 pg/mL
  HBV DNA Polymerase (cpm): 119 cpm and 550 cpm and 843 cpm and 164 cpm and 145 cpm and 169 cpm
Hepatitis B virus; 0.1 mpk, Month 1 (follow-up), individual patients 1A-6A
  HBV DNA: 4.3 pg/mL and 4.8 pg/mL and 34.2 pg/mL and 4.4 pg/mL and 18.6 pg/mL and 138.5 pg/mL
Hepatitis B virus; 0.1 mpk, Month 2 (follow-up), individual patients 1A-6A
  HBV DNA: 13.8 pg/mL and 11.7 pg/mL and 58.4 pg/mL and 5.9 pg/mL and 26.1 pg/mL and 172.9 pg/mL
Hepatitis B virus; [6]
  HBV DNA: 9.3 pg/mL and 94.5 pg/mL and 223.2 pg/mL and 7.3 pg/mL and 17.9 pg/mL and 25.2 pg/mL
  HBV DNA Polymerase (cpm): 90 cpm and 507 cpm and 977 cpm and 118 cpm and 136 cpm and 142 cpm
Hepatitis B virus; [7]
  HBV DNA: 6.4 pg/mL and 42.2 pg/mL and 122.1 pg/mL and 3.2 pg/mL and 9.0 pg/mL and 22.8 pg/mL
  HBV DNA Polymerase (cpm): 144 cpm and 360 cpm and 303 cpm and 69 cpm and 86 cpm and 148 cpm
Hepatitis B virus; [8]
  HBV DNA: 0.0 pg/mL and 31.4 pg/mL and 78.3 pg/mL and 2.5 pg/mL and 7.4 pg/mL and 21.8 pg/mL
  HBV DNA Polymerase (cpm): 93 cpm and 205 cpm and 310 cpm and 74 cpm and 99 cpm and 165 cpm
Hepatitis B virus; [9]
  HBV DNA: 4.1 pg/mL and 42.4 pg/mL and 76.1 pg/mL and 8.7 pg/mL and 21.9 pg/mL and 67.9 pg/mL
  HBV DNA Polymerase (cpm): 84 cpm and 368 cpm and 657 cpm and 169 cpm and 127 cpm and 324 cpm
Hepatitis B virus; 0.1 mpk, n = 6
  Mean % change of HBV DNA at Week 4 of FIAU: -88%
Hepatitis B virus; 0.25 mpk
  mean reduction of HBV DNA serum level from initial levels at Week 4: 84%
  patients who "sero-converted" (failed to exhibit hepatitis B surface antigen): 2 of 6
  Number HBeAg-negative at latest follow-up: 2
Hepatitis B virus; [10]
  HBV DNA: 975.8 pg/mL and 63.9 pg/mL and 799.1 pg/mL and 196.3 pg/mL and 110.3 pg/mL and 141.1 pg/mL
  HBV DNA Polymerase (cpm): 43,752 cpm and 835 cpm and 10,833 cpm and 2,752 cpm and 2,454 cpm and 7,422 cpm
Hepatitis B virus; [11]
  HBV DNA: 742.7 pg/mL and 23 pg/mL and 472.3 pg/mL and 103.5 pg/mL and 40.4 pg/mL and 79.9 pg/mL
  HBV DNA Polymerase (cpm): 7,841 cpm and 182 cpm and 2,115 cpm and 1,302 cpm and 506 cpm and 1,482 cpm
Hepatitis B virus; [12]
  HBV DNA: 718.9 pg/mL and 17.5 pg/mL and 204.2 pg/mL and 47.1 pg/mL and 15.9 pg/mL and 60.7 pg/mL
  HBV DNA Polymerase (cpm): 5,129 cpm and 81 cpm and 1,481 cpm and 213 cpm and 131 cpm and 772 cpm
Hepatitis B virus; 0.25 mpk, Month 1 (follow-up), individual patients 1B-6B
  HBV DNA: 4.9 pg/mL and 23.4 pg/mL and 100.6 pg/mL and 242.5 pg/mL and 2.7 pg/mL
Hepatitis B virus; [13]
  HBV DNA: 492.9 pg/mL and 8.0 pg/mL and 182.6 pg/mL and 32.4 pg/mL and 9.3 pg/mL and 26.6 pg/mL
  HBV DNA Polymerase (cpm): 3,395 cpm and 129 cpm and 2,752 cpm and 105 cpm and 45 cpm and 260 cpm
Hepatitis B virus; 0.25 mpk, Week 3, individual patients 1B-3B
  HBV DNA Polymerase (cpm): 2,012 cpm and 63 cpm and 1,602 cpm
Hepatitis B virus; 0.25 mpk, Week 3, individual patients 1B-6B
  HBV DNA: 373.2 pg/mL and 10.6 pg/mL and 68.3 pg/mL and 31.1 pg/mL and 8.3 pg/mL and 44.2 pg/mL
Hepatitis B virus; 0.25 mpk, Week 4, individual patients 1B-3B
  HBV DNA Polymerase (cpm): 834 cpm and 42 cpm and 1,076 cpm
Hepatitis B virus; 0.25 mpk, Week 4, individual patients 1B-6B
  HBV DNA: 237.9 pg/mL and 7.2 pg/mL and 69.6 pg/mL and 34.0 pg/mL and 7.9 pg/mL and 41.7 pg/mL
Hepatitis B virus; 0.25 mpk, Week 5 (after 4-week treatment), individual patients 1B-6B
  HBV DNA: 376.3 pg/mL and 24.1 pg/mL and 6.4 pg/mL and 89.9 pg/mL and 6.8 pg/mL
Hepatitis B virus; 0.25 mpk, n = 6
  Mean % change of HBV DNA at Week 4 of FIAU: -84%
Hepatitis B virus; within the first few days, FIG. 20
  reduction of the initial HBV DNA polymerase level: 80-90%
[1]; 1.0 mg/kg-day, steady state, Days 3-14
  FIAU peak plasma concentration, range maximum: 1.66 µg/mL
[1]; FIAU 1.0 mg/kg-day, 14 days
  accumulation in the plasma with continued dosing: Neither FIAU nor FAU tended to accumulate; also recorded: Neither compound tended to accumulate
[1]; human, in vivo, po, 1 mg/kg/day
  FIAU trough plasma value, typical: under 0.2 μg/ml
[1]; [14]
  FIAU peak plasma concentration, mean: 0.58 µg/mL
  FIAU trough plasma concentration, mean: 0.05 µg/mL
[1]; human, in vivo, po, 1 mg/kg/day, FIAU peak plasma concentration, mean
  Cmax at 24 h: 580 ng/mL
[1]; human, in vivo, po, 1 mg/kg/day, FIAU peak plasma value at steady state, average
  Cmax at 2 h: ~1000 ng/mL
[1]; human, in vivo, po, 1 mg/kg/day, mean
  concentration at 24 h: 50 ng/mL
[1]; human, in vivo, po, 1 mg/kg/day, range maximum
  concentration at 24 h: 130 ng/mL
[2]
  Incidence: ALT elevation, moderate (2.5-5.0x): 2/4
